These are literature values, as cited in patent publication EP4603080A1 (Adocia, priority 2024, dated 2025).

pEC50: −log10 of the molar value.

For this data set the following is noted: read-out: EC50value; potency, WO2022129526 Assay 2, Tables 4b and 4c.

Consider “N-alpha-[(S)-4-Carboxy-4-(19-carboxynonadecanoylamino)butyryl]-[Glu14,Arg17,Pro37]-pramlintide [cagrilintide]”, for which the pEC50 is roughly 10.96.
